Assays:
[1] = target: RAC-alpha serine/threonine-protein kinase (Homo sapiens) (UniProt P31749); assay: AKT1 DiscoveRx kinase panel; details: Compound concentration 1.0 uM
[2] = target: Leucine-rich repeat serine/threonine-protein kinase 2 (Homo sapiens) (UniProt Q5S007); assay: LRRK2 DiscoveRx kinase panel; details: Compound concentration 1.0 uM
[3] = target: Cyclin-dependent kinase 8 (Homo sapiens) (UniProt P49336); assay: CDK8 DiscoveRx kinase panel; details: Compound concentration 1.0 uM
[4] = target: Tyrosine-protein kinase ABL1 (Homo sapiens) (UniProt P00519); assay: ABL1-phosphorylated DiscoveRx kinase panel; details: Compound concentration 1.0 uM
[5] = target: Cyclin-dependent kinase 13 (Homo sapiens) (UniProt Q14004); assay: CDC2L5 DiscoveRx kinase panel; details: Compound concentration 1.0 uM
[6] = target: Citron Rho-interacting kinase (Homo sapiens) (UniProt O14578); assay: CIT DiscoveRx kinase panel; details: Compound concentration 1.0 uM
[7] = target: Adenosine receptor A2a (Homo sapiens) (UniProt P29274); details: Compound concentration 10.0 uM
[8] = target: 5-hydroxytryptamine receptor 1A (Homo sapiens) (UniProt P08908); assay: Serotonin (5-Hydroxytryptamine) 5-HT1A Eurofins-Panlabs radioligand binding assay; details: Compound concentration 10.0 uM
[9] = target: Serine/threonine-protein kinase D1 (Homo sapiens) (UniProt Q15139); assay: PRKD1 DiscoveRx kinase panel; details: Compound concentration 1.0 uM
[10] = target: Serine/threonine-protein kinase PLK4 (Homo sapiens) (UniProt O00444); assay: PLK4 DiscoveRx kinase panel; details: Compound concentration 1.0 uM
[11] = target: Tyrosine-protein kinase Lck (Homo sapiens) (UniProt P06239); assay: Inhibition of Protein Tyrosine Kinase, LCK at 10 µM in the Eurofins-Panlabs enzyme assay (Eurofins_assay_176020); details: Compound concentration 10.0 uM
[12] = target: Tyrosine-protein kinase receptor TYRO3 (Homo sapiens) (UniProt Q06418); assay: TYRO3 DiscoveRx kinase panel; details: Compound concentration 1.0 uM
[13] = target: Tyrosine-protein kinase JAK1 (Homo sapiens) (UniProt P23458); assay: JAK1(JH1domain-catalytic) DiscoveRx kinase panel; details: Compound concentration 1.0 uM
[14] = target: Ephrin type-A receptor 2 (Homo sapiens) (UniProt P29317); assay: EPHA2 DiscoveRx kinase panel; details: Compound concentration 1.0 uM
[15] = target: Cyclin-dependent kinase-like 1 (Homo sapiens) (UniProt Q00532); assay: CDKL1 DiscoveRx kinase panel; details: Compound concentration 1.0 uM
[16] = target: Histamine H1 receptor (Homo sapiens) (UniProt P35367); details: Compound concentration 10.0 uM
[17] = target: Phosphatidylinositol 4,5-bisphosphate 3-kinase catalytic subunit beta isoform (Homo sapiens) (UniProt P42338); assay: PIK3CB DiscoveRx kinase panel; details: Compound concentration 1.0 uM
[18] = target: Ephrin type-A receptor 4 (Homo sapiens) (UniProt P54764); assay: EPHA4 DiscoveRx kinase panel; details: Compound concentration 1.0 uM
[19] = target: Membrane-associated tyrosine- and threonine-specific cdc2-inhibitory kinase (Homo sapiens) (UniProt Q99640); assay: PKMYT1 DiscoveRx kinase panel; details: Compound concentration 1.0 uM
[20] = target: Adenosine Transporter (Cavia porcellus) (UniProt H0V4R7+H0UUG1+H0V3Z5); assay: Inhibition of Transporter, Adenosine at compound concentration of 10.0 uM in the Eurofins-Panlabs radioligand binding assay (Eurofins_assay_202000); format: protein assay; set-up: ligand concentration 0.5 nM, non-specific ligand with concentration 5 uM Nitrobenzylthioinosine, incubation time 30 min, incubation temperature 25 C; details: Compound concentration 10.0 uM
[21] = target: Dual specificity mitogen-activated protein kinase kinase 4 (Homo sapiens) (UniProt P45985); assay: MEK4 DiscoveRx kinase panel; details: Compound concentration 1.0 uM
[22] = target: Dual specificity tyrosine-phosphorylation-regulated kinase 1B (Homo sapiens, UniProt Q9Y463); assay: DYRK1B DiscoveRx kinase panel
[23] = target: Serine/threonine-protein kinase SIK2 (Homo sapiens) (UniProt Q9H0K1); assay: SIK2 DiscoveRx kinase panel; details: Compound concentration 1.0 uM
[24] = target: Acetylcholine receptor subunit alpha (Homo sapiens) (UniProt P02708); assay: Inhibition of Nicotinic Acetylcholine D1, Bungarotoxin at 10 µM in the Eurofins-Panlabs radioligand binding assay (Eurofins_assay_258700); details: Compound concentration 10.0 uM
[25] = target: Insulin receptor-related protein (Homo sapiens) (UniProt P14616); assay: INSRR DiscoveRx kinase panel; details: Compound concentration 1.0 uM
[26] = target: Phosphatidylinositol 5-phosphate 4-kinase type-2 beta (Homo sapiens) (UniProt P78356); assay: PIP5K2B DiscoveRx kinase panel; details: Compound concentration 1.0 uM
[27] = target: Serine/threonine-protein kinase PAK 4 (Homo sapiens) (UniProt O96013); assay: PAK4 DiscoveRx kinase panel; details: Compound concentration 1.0 uM
[28] = target: Serine/threonine-protein kinase 33 (Homo sapiens) (UniProt Q9BYT3); assay: STK33 DiscoveRx kinase panel; details: Compound concentration 1.0 uM
[29] = target: Ribosomal protein S6 kinase alpha-4 (Homo sapiens) (UniProt O75676); assay: RPS6KA4(Kin.Dom.2-C-terminal) DiscoveRx kinase panel; details: Compound concentration 1.0 uM
[30] = target: Fibroblast growth factor receptor 2 (Homo sapiens) (UniProt P21802); assay: FGFR2 DiscoveRx kinase panel; details: Compound concentration 1.0 uM
[31] = target: Serine/threonine-protein kinase PAK 2 (Homo sapiens) (UniProt Q13177); assay: PAK2 DiscoveRx kinase panel; details: Compound concentration 1.0 uM
[32] = target: Macrophage colony-stimulating factor 1 receptor (Homo sapiens) (UniProt P07333); assay: CSF1R DiscoveRx kinase panel; details: Compound concentration 1.0 uM
[33] = target: Muscle, skeletal receptor tyrosine-protein kinase (Homo sapiens) (UniProt O15146); assay: MUSK DiscoveRx kinase panel; details: Compound concentration 1.0 uM
[34] = target: Serine/threonine-protein kinase N1 (Homo sapiens) (UniProt Q16512); assay: PKN1 DiscoveRx kinase panel; details: Compound concentration 1.0 uM
[35] = target: Serine/threonine-protein kinase SBK1 (Homo sapiens) (UniProt Q52WX2); assay: SBK1 DiscoveRx kinase panel; details: Compound concentration 1.0 uM
[36] = target: Serine/threonine-protein kinase Nek3 (Homo sapiens) (UniProt P51956); assay: NEK3 DiscoveRx kinase panel; details: Compound concentration 1.0 uM
[37] = target: Serine/threonine-protein kinase Nek7 (Homo sapiens) (UniProt Q8TDX7); assay: NEK7 DiscoveRx kinase panel; details: Compound concentration 1.0 uM
[38] = target: Cyclin-dependent kinase 3 (Homo sapiens) (UniProt Q00526); assay: CDK3 DiscoveRx kinase panel; details: Compound concentration 1.0 uM
[39] = target: Sigma non-opioid intracellular receptor 1 (Homo sapiens, UniProt Q99720); assay: Inhibition of Sigma 1 at 10 µM in the Eurofins-Panlabs radioligand binding assay (Eurofins_assay_278110); set-up: ligand concentration 8 nM; details: Compound concentration 10.0 uM
[40] = target: Tyrosine-protein kinase Mer (Homo sapiens) (UniProt Q12866); assay: MERTK DiscoveRx kinase panel; details: Compound concentration 1.0 uM
[41] = target: Serine/threonine-protein kinase D3 (Homo sapiens) (UniProt O94806); assay: PRKD3 DiscoveRx kinase panel; details: Compound concentration 1.0 uM
[42] = target: Mitogen-activated protein kinase kinase kinase 13 (Homo sapiens) (UniProt O43283); assay: LZK DiscoveRx kinase panel; details: Compound concentration 1.0 uM
[43] = target: Serine/threonine-protein kinase PAK 3 (Homo sapiens) (UniProt O75914); assay: PAK3 DiscoveRx kinase panel; details: Compound concentration 1.0 uM
[44] = target: Homeodomain-interacting protein kinase 1 (Homo sapiens) (UniProt Q86Z02); assay: HIPK1 DiscoveRx kinase panel; details: Compound concentration 1.0 uM
[45] = target: Mitogen-activated protein kinase kinase kinase 19 (Homo sapiens) (UniProt Q56UN5); assay: YSK4 DiscoveRx kinase panel; details: Compound concentration 1.0 uM
[46] = target: G protein-coupled receptor kinase 3 (Homo sapiens) (UniProt P35626); assay: GRK3 DiscoveRx kinase panel; details: Compound concentration 1.0 uM
[47] = target: Interleukin-1 receptor-associated kinase 1 (Homo sapiens) (UniProt P51617); assay: IRAK1 DiscoveRx kinase panel; details: Compound concentration 1.0 uM

Chain of Macrophage colony-stimulating factor 1 receptor (Homo sapiens) (P07333 whole entry): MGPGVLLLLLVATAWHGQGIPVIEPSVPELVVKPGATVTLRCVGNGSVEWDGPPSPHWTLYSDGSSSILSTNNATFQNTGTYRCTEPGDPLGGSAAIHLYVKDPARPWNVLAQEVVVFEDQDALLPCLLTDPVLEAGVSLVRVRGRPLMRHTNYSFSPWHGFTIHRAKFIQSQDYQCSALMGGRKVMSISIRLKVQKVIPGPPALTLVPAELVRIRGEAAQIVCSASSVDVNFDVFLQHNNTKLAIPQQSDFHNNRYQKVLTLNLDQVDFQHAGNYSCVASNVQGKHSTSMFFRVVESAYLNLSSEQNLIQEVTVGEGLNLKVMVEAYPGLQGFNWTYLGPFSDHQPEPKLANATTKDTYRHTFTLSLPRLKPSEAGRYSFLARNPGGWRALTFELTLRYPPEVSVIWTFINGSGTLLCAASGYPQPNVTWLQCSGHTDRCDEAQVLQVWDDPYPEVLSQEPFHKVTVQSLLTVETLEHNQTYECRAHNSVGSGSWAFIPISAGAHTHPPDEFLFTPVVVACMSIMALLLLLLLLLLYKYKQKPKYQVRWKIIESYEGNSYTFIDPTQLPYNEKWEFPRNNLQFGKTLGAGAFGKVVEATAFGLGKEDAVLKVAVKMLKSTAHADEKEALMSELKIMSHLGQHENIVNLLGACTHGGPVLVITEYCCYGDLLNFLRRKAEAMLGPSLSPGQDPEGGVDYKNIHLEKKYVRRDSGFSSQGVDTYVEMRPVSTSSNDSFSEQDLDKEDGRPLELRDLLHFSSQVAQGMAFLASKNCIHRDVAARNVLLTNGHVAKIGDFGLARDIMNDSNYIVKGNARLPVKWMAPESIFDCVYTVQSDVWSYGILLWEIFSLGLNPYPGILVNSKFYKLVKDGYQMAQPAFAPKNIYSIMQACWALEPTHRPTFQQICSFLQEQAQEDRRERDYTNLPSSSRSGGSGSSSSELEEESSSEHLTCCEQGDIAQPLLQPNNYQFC
Chain of 5-hydroxytryptamine receptor 1A (Homo sapiens) (P08908 whole entry): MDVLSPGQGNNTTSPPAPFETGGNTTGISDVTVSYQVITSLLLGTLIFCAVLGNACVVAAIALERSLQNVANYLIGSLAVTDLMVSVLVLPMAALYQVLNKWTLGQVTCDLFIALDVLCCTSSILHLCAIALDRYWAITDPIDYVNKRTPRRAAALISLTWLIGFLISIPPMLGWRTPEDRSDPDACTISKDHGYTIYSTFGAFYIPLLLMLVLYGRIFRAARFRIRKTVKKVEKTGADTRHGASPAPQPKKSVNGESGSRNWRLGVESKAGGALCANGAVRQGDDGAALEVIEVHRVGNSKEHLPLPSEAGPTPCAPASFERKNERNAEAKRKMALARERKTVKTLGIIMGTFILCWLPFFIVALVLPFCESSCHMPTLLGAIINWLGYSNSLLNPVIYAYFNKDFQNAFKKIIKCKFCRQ
Chain of Serine/threonine-protein kinase D1 (Homo sapiens) (Q15139 whole entry): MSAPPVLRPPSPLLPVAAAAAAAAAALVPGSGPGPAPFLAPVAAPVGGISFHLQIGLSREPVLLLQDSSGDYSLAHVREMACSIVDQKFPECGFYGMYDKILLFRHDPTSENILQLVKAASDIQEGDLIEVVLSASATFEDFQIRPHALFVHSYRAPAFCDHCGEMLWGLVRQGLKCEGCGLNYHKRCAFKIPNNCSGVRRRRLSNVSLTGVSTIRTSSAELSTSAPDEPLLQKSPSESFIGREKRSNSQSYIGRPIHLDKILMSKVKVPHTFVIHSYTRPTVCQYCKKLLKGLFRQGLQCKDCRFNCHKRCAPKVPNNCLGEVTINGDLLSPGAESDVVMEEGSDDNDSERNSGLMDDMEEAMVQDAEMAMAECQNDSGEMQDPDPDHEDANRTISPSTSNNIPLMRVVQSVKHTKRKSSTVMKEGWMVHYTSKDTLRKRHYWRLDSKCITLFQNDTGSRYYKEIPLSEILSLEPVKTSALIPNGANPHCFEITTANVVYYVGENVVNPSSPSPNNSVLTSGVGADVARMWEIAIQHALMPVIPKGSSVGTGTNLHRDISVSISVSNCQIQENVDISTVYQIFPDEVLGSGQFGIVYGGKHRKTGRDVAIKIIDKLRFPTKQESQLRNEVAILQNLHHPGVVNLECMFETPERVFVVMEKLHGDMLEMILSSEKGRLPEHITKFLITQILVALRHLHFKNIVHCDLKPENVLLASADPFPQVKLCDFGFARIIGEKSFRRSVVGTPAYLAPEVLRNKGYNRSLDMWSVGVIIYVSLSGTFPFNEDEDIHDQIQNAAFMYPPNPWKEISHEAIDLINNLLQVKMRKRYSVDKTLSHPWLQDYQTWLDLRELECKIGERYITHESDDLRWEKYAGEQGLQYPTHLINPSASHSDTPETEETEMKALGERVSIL
Chain of Ephrin type-A receptor 4 (Homo sapiens) (P54764 whole entry): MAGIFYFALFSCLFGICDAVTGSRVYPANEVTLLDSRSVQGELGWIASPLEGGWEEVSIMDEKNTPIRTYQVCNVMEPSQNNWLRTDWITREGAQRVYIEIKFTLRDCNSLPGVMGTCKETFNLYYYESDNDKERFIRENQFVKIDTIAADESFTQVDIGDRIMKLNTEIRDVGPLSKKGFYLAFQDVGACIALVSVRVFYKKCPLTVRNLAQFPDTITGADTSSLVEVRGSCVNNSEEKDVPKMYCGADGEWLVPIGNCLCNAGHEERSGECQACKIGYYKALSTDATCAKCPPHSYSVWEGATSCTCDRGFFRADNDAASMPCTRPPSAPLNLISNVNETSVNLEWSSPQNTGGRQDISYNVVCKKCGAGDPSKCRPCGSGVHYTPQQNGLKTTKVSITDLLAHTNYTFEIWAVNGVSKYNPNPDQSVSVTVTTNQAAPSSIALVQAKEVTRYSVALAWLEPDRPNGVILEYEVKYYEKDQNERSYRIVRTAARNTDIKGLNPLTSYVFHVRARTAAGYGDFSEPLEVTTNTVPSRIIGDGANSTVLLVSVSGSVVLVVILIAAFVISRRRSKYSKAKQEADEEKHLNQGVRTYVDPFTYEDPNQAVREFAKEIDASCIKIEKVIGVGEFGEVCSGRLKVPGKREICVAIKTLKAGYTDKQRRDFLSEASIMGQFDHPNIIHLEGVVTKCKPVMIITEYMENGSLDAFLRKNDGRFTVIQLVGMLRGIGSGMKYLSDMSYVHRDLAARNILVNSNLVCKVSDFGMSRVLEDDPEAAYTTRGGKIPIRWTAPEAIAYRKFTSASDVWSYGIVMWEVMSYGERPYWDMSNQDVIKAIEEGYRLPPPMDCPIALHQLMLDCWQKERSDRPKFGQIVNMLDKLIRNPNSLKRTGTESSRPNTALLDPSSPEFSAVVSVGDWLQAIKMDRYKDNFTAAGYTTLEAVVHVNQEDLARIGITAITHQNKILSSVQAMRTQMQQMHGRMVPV
Chain of Tyrosine-protein kinase ABL1 (Homo sapiens) (P00519 whole entry): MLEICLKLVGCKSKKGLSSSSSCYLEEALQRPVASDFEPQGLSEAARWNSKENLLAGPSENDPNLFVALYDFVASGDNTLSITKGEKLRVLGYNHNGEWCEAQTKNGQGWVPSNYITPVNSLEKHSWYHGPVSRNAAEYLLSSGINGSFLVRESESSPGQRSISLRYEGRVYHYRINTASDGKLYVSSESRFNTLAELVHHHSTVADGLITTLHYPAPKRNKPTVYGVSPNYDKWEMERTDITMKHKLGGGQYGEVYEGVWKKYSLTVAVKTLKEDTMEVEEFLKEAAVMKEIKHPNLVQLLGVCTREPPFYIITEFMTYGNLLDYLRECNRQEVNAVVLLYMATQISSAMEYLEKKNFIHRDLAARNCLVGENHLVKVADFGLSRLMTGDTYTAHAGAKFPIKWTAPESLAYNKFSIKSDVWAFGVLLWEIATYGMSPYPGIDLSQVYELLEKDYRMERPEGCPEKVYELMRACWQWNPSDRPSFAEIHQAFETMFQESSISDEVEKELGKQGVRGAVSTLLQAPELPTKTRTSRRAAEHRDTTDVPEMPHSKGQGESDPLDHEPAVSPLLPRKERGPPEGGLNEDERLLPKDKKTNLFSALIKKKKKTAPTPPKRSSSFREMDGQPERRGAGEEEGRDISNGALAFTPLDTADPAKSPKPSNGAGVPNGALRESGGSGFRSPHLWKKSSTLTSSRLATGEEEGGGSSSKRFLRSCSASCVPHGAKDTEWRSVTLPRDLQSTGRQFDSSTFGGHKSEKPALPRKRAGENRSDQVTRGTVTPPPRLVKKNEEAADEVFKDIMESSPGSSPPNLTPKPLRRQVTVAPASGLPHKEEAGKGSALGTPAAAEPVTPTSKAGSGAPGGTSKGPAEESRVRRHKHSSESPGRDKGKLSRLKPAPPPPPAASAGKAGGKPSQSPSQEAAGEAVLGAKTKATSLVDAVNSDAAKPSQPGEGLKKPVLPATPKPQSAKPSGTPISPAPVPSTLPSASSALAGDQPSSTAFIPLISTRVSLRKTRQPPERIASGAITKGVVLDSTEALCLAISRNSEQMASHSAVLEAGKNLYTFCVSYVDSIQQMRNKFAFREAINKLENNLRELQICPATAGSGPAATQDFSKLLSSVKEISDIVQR
Chain of Serine/threonine-protein kinase SBK1 (Homo sapiens) (Q52WX2 whole entry): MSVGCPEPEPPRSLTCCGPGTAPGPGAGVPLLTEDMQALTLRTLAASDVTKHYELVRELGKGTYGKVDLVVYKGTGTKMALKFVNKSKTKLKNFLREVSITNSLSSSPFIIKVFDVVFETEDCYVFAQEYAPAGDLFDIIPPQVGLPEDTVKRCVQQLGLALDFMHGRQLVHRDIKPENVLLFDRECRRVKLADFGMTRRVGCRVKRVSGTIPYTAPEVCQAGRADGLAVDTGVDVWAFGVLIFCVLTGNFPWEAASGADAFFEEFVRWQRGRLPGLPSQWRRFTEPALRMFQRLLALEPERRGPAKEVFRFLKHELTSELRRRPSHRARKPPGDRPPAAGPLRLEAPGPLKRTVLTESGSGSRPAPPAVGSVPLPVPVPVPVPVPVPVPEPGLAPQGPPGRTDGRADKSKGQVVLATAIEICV
Chain of Sigma non-opioid intracellular receptor 1 (Q99720 whole entry): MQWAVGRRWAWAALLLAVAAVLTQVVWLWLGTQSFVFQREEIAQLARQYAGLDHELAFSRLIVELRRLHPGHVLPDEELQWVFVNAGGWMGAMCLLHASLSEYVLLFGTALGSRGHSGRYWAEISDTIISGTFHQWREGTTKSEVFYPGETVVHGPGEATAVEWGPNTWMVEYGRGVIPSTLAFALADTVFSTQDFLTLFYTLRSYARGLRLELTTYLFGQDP

Question: What does the source list for `COc1cnccc1Nc1nc(-c2nn(Cc3c(F)cc(OCCO)cc3F)c3ccccc23)ncc1OC`?
Answer: residual activity [1]: 100%; residual activity [2]: 100%; residual activity [3]: 69%; residual activity [4]: 94%; residual activity [5]: 100%; residual activity [6]: 52%; inhibition [7]: 67%; inhibition [8]: 0%; residual activity [9]: 100%; residual activity [10]: 100%; inhibition [11]: 6%; residual activity [12]: 56%; residual activity [13]: 90%; residual activity [14]: 100%; residual activity [15]: 81%; inhibition [16]: 12%; residual activity [17]: 97%; residual activity [18]: 96%; residual activity [19]: 100%; inhibition [20]: 71%; residual activity [21]: 90%; Kd [22]: > 30 µM; residual activity ([22]; Compound concentration 1.0 uM): 6.7%; residual activity [23]: 100%; inhibition [24]: 14%; residual activity [25]: 96%; residual activity [26]: 91%; residual activity [27]: 82%; residual activity [28]: 100%; residual activity [29]: 100%; residual activity [30]: 100%; residual activity [31]: 100%; residual activity [32]: 99%; residual activity [33]: 93%; residual activity [34]: 92%; residual activity [35]: 100%; residual activity [36]: 100%; residual activity [37]: 78%; residual activity [38]: 99%; inhibition [39]: -3%; residual activity [40]: 83%; residual activity [41]: 79%; residual activity [42]: 53%; residual activity [43]: 81%; residual activity [44]: 94%; residual activity [45]: 97%; residual activity [46]: 100%; residual activity [47]: 100%

— ChEMBL document CHEMBL5058649, “Data for DCP probe BAY 1816032” (2022)
